From US8841483B2, “Compositions useful as inhibitors of voltage-gated sodium channels” (Vertex Pharmaceuticals Incorporated, priority 2006, dated 2014)

Molecular target: T1, NaV1.8 (Homo sapiens, UniProt Q9Y5Y9)
Experiment: Activity against NaV 1.8 channel (Table 3), optical membrane potential / electrophysiology assays
Format: cell-based
Details: not given
Experimental: Compounds of the invention are useful as antagonists of voltage-gated sodium ion channels. Antagonist properties of test compounds were assessed as follows. Cells expressing the NaV of interest were placed into microtiter plates. After an incubation period, the cells were stained with fluorescent dyes sensitive to the transmembrane potential. The test compounds were added to the microtiter plate. The cells were stimulated with either a chemical or electrical means ti evoke a NaV dependent membrane potential change from unblocked channels, which was detected and measured with trans-membrane potential-sensitive dyes. Antagonists were detected as a decreased membrane potential response to the stimulus. The optical membrane potential assay utilized voltage-sensitive FRET sensors described by Gonzalez and Tsien (See, Gonzalez, J. E. and R. Y. Tsien (1995) “Voltage sensing by fluorescence resonance energy transfer in single cells” Biophys J 69(4): 1272-80, and Gonzalez, J. E. and R. Y. Tsien (1997) “Improved indicators of cell membrane potential that use fluorescence resonance energy transfer” Chem Biol 4(4): 269-77) in combination with instrumentation for measuring fluorescence changes such as the Voltage/Ion Probe Reader (VIPR®) (See, Gonzalez, J. E., K. Oades, et al. (1999) “Cell-based assays and instrumentation for screening ion-channel targets” Drug Discov Today 4(9): 431-439).
The following is an example of how NaV1.3 inhibition activity is measured using the optical membrane potential method #2. Other subtypes are performed in an analogous mode in a cell line expressing the NaV of interest.
HEK293 cells stably expressing NaV1.3 are plated into 96-well microtiter plates. After an appropriate incubation period, the cells are stained with the voltage sensitive dyes CC2-DMPE/DiSBAC2(3) as follows.
2X CC2-DMPE=20 μM CC2-DMPE: 10 mM CC2-DMPE is vortexed with an equivalent volume of 10% pluronic, followed by vortexing in required amount of HBSS containing 10 mM HEPES. Each cell plate will require 5 mL of 2X CC2-DMPE. 50 μL of 2X CC2-DMPE is to wells containing washed cells, resulting in a 10 μM final staining concentration. The cells are stained for 30 minutes in the dark at RT.
2X DISBAC2(3) with ABSC1=6 μM DISBAC2(3) and 1 mM ABSC1: The required amount of 10 mM DISBAC2(3) is added to a 50 ml conical tube and mixed with 1 μL 10% pluronic for each mL of solution to be made and vortexed together. Then HBSS/HEPES is added to make up 2X solution. Finally, the ABSC1 is added.
The 2X DiSBAC2(3) solution can be used to solvate compound plates. Note that compound plates are made at 2X drug concentration. Wash stained plate again, leaving residual volume of 50 μL. Add 50 uL/well of the 2X DiSBAC2(3) w/ABSC1. Stain for 30 minutes in the dark at RT.
The electrical stimulation instrument and methods of use are described in ION Channel Assay Methods PCT/US01/21652, herein incorporated by reference. The instrument comprises a microtiter plate handler, an optical system for exciting the coumarin dye while simultaneously recording the coumarin and oxonol emissions, a waveform generator, a current- or voltage-controlled amplifier, and a device for inserting electrodes in well. Under integrated computer control, this instrument passes user-programmed electrical stimulus protocols to cells within the wells of the microtiter plate.
Assay Protocol • 1. Insert or use electrodes into each well to be assayed. • 2. Use the current-controlled amplifier to deliver stimulation wave pulses for 3 s. Two seconds of pre-stimulus recording are performed to obtain the un-stimulated intensities. Five seconds of post-stimulation recording are performed to examine the relaxation to the resting state.
Data are analyzed and reported as normalized ratios of background-subtracted emission intensities measured in the 460 nm and 580 nm channels. Background intensities are then subtracted from each assay channel. […]
In the case of CC(C)(C)c1ccc(C(=O)Nc2cccc(S(N)(=O)=O)c2)c(Oc2ccc(F)cc2Cl)c1 [Compound 101], the IC50 is reported as < 2 µM.
CC(=O)c1ccccc1Oc1cc(C(C)(C)C)ccc1C(=O)Nc1cccc(S(N)(=O)=O)c1 [Compound 102] gave an IC50 of 2 to 10 µM.
In the case of CCOc1cc(C(C)(C)C)ccc1C(=O)Nc1cccc(S(N)(=O)=O)c1 [Compound 103], the IC50 is reported as < 2 µM.
With CC(C)(C)c1ccc(C(=O)Nc2cccc(S(N)(=O)=O)c2)c(Oc2ccccc2C(F)(F)F)c1 [Compound 104] the IC50 was < 2 µM.
In the case of CC(C)(C)c1ccc(C(=O)Nc2cccc(S(N)(=O)=O)c2)c(Sc2ccccc2)c1 [Compound 105], the IC50 is reported as < 2 µM.
For COc1cc(C(C)(C)C)ccc1C(=O)Nc1cccc(S(N)(=O)=O)c1 [Compound 106], the IC50 was < 2 µM.
In the case of CC(C)(C)c1ccc(C(=O)Nc2cccc(S(N)(=O)=O)c2)c(Oc2ccc(F)cc2F)c1 [Compound 107], the IC50 is reported as < 2 µM.
In the case of Cc1cc(F)ccc1Oc1cc(C(C)(C)C)ccc1C(=O)Nc1cccc(S(N)(=O)=O)c1 [Compound 108], the IC50 is reported as < 2 µM.
With Cc1ccc(Oc2cc(C(C)(C)C)ccc2C(=O)Nc2cccc(S(N)(=O)=O)c2)c(C)c1 [Compound 109] the IC50 was < 2 µM.
For CC(C)(C)c1ccc(C(=O)Nc2cccc(S(N)(=O)=O)c2)c([S+]([O-])c2ccccc2)c1 (centres unmarked) [Compound 110, 4-tert-Butyl-2-(phenylsulfinyl)-N-(3-sulfamoylphenyl)benzamide], the IC50 was 2 to 10 µM.
In the case of CC(C)(C)c1ccc(C(=O)Nc2cccc(S(N)(=O)=O)c2)c(Oc2ccccc2C#N)c1 [Compound 111], the IC50 is reported as 2 to 10 µM.
For CC(C)(C)c1ccc(C(=O)Nc2cccc(S(N)(=O)=O)c2)c(S(=O)(=O)c2ccccc2)c1 [Compound 112, 4-tert-Butyl-2-(phenylsulfonyl)-N-(3-sulfamoylphenyl)benzamide], the IC50 was 2 to 10 µM.
For CC(C)(C)c1ccc(C(=O)Nc2cccc(S(N)(=O)=O)c2)c(Oc2ccc(Cl)cc2Cl)c1 [Compound 113], the IC50 was < 2 µM.
In the case of Cc1ncccc1Oc1cc(C(C)(C)C)ccc1C(=O)Nc1cccc(S(N)(=O)=O)c1 [Compound 114], the IC50 is reported as < 2 µM.
In the case of CC(C)(C)c1ccc(C(=O)Nc2cccc(S(N)(=O)=O)c2)c(Oc2ccc(C(F)(F)F)nc2)c1 [Compound 115], the IC50 is reported as < 2 µM.
In the case of CC(C)(C)c1ccc(C(=O)Nc2cccc(S(N)(=O)=O)c2)c(Oc2ccc(C(F)(F)F)cc2Cl)c1 [Compound 116], the IC50 is reported as 2 to 10 µM.
With CCOc1ccc(C(=O)Nc2cccc(S(N)(=O)=O)c2)c(OCC)c1 [Compound 117] the IC50 was > 10 µM.
With CC(C)(C)c1ccc(C(=O)Nc2cccc(S(N)(=O)=O)c2)c(Oc2ccc(C(N)=O)cc2)c1 [Compound 118] the IC50 was > 10 µM.
With Cc1cccc(Oc2cc(C(C)(C)C)ccc2C(=O)Nc2cccc(S(N)(=O)=O)c2)c1 [Compound 119] the IC50 was < 2 µM.
With NS(=O)(=O)c1cccc(NC(=O)c2ccc(Cl)cc2Cl)c1 [Compound 120] the IC50 was > 10 µM.
In the case of CN(C)S(=O)(=O)c1cccc(NC(=O)c2ccc(C(C)(C)C)cc2Oc2ccc(F)cc2Cl)c1 [Compound 121], the IC50 is reported as < 2 µM.
For CC(=O)c1ccccc1C(=O)Nc1cccc(S(N)(=O)=O)c1 [Compound 122], the IC50 was > 10 µM.
With COc1ccc(C(=O)Nc2cccc(S(N)(=O)=O)c2)c(OC)c1 [Compound 123] the IC50 was > 10 µM.
For Cc1cc(Oc2cc(C(C)(C)C)ccc2C(=O)Nc2cccc(S(N)(=O)=O)c2)cc(C)n1 [Compound 124], the IC50 was > 10 µM.
For COC(=O)c1ccc(Oc2cc(C(C)(C)C)ccc2C(=O)Nc2cccc(S(N)(=O)=O)c2)cc1 [Compound 125], the IC50 was < 2 µM.
In the case of CC(C)(C)NS(=O)(=O)c1cccc(NC(=O)c2ccc(C(C)(C)C)cc2Br)c1 [Compound 126], the IC50 is reported as 2 to 10 µM.
For CS(=O)(=O)c1ccc(C(=O)Nc2cccc(S(N)(=O)=O)c2)c(Cl)c1 [Compound 127], the IC50 was > 10 µM.
With CC(=O)c1ccc(Oc2cc(C(C)(C)C)ccc2C(=O)Nc2cccc(S(N)(=O)=O)c2)cc1 [Compound 128] the IC50 was < 2 µM.
For CC(C)(C)c1ccc(C(=O)Nc2cccc(S(N)(=O)=O)c2)c(Oc2cc(C(F)(F)F)ncn2)c1 [Compound 129], the IC50 was > 10 µM.
In the case of CC(C)(C)c1ccc(C(=O)Nc2cccc(S(N)(=O)=O)c2)c(Oc2ccc(C#N)cc2)c1 [Compound 130], the IC50 is reported as < 2 µM.
For CCCOc1ccccc1C(=O)Nc1cccc(S(N)(=O)=O)c1 [Compound 131], the IC50 was > 10 µM.
In the case of CC(C)(C)c1ccc(C(=O)Nc2cccc(S(N)(=O)=O)c2)c(Oc2cccc(F)c2)c1 [Compound 132], the IC50 is reported as < 2 µM.
For COc1ccc(C(=O)Nc2cccc(S(N)(=O)=O)c2)c(C(F)(F)F)c1 [Compound 133], the IC50 was > 10 µM.
In the case of CC(C)(C)c1ccc(C(=O)Nc2cccc(S(N)(=O)=O)c2)c(Oc2cccc(C(F)(F)F)c2)c1 [Compound 134], the IC50 is reported as < 2 µM.
For CC(=O)c1cccc(Oc2cc(C(C)(C)C)ccc2C(=O)Nc2cccc(S(N)(=O)=O)c2)c1 [Compound 135], the IC50 was < 2 µM.
For CC(C)(C)c1ccc(C(=O)Nc2cccc(S(N)(=O)=O)c2)c(Oc2cccc(N3CCOCC3)c2)c1 [Compound 136], the IC50 was > 10 µM.
For CCc1ccccc1C(=O)Nc1cccc(S(N)(=O)=O)c1 [Compound 137], the IC50 was > 10 µM.
For Cc1ncccc1Oc1cc(C(F)(F)F)ccc1C(=O)Nc1cccc(S(N)(=O)=O)c1 [Compound 138, 2-(2-methylpyridin-3-yloxy)-N-(3-sulfamoylphenyl)-4-(trifluoromethyl)benzamide], the IC50 was < 2 µM.
COc1cccc(Oc2cc(C(C)(C)C)ccc2C(=O)Nc2cccc(S(N)(=O)=O)c2)c1 [Compound 139] gave an IC50 of 2 to 10 µM.
In the case of COc1cc(Cl)ccc1C(=O)Nc1cccc(S(N)(=O)=O)c1 [Compound 140], the IC50 is reported as > 10 µM.
For COc1ccc(C(=O)Nc2cccc(S(N)(=O)=O)c2)c(C)c1 [Compound 141], the IC50 was > 10 µM.
For Cc1ccc(C(=O)Nc2cccc(S(N)(=O)=O)c2)c(Br)c1 [Compound 142], the IC50 was > 10 µM.
For CC(C)(C)c1ccc(C(=O)Nc2cccc(S(N)(=O)=O)c2)c(Oc2ccc(C#N)cc2Cl)c1 [Compound 143], the IC50 was < 2 µM.
For Cc1ccc(Oc2cc(C(C)(C)C)ccc2C(=O)Nc2cccc(S(N)(=O)=O)c2)cn1 [Compound 144], the IC50 was < 2 µM.

Molecular target: NaV1.3 (Homo sapiens, UniProt Q9NY46)
Sequence (Q9NY46 whole entry, looked up): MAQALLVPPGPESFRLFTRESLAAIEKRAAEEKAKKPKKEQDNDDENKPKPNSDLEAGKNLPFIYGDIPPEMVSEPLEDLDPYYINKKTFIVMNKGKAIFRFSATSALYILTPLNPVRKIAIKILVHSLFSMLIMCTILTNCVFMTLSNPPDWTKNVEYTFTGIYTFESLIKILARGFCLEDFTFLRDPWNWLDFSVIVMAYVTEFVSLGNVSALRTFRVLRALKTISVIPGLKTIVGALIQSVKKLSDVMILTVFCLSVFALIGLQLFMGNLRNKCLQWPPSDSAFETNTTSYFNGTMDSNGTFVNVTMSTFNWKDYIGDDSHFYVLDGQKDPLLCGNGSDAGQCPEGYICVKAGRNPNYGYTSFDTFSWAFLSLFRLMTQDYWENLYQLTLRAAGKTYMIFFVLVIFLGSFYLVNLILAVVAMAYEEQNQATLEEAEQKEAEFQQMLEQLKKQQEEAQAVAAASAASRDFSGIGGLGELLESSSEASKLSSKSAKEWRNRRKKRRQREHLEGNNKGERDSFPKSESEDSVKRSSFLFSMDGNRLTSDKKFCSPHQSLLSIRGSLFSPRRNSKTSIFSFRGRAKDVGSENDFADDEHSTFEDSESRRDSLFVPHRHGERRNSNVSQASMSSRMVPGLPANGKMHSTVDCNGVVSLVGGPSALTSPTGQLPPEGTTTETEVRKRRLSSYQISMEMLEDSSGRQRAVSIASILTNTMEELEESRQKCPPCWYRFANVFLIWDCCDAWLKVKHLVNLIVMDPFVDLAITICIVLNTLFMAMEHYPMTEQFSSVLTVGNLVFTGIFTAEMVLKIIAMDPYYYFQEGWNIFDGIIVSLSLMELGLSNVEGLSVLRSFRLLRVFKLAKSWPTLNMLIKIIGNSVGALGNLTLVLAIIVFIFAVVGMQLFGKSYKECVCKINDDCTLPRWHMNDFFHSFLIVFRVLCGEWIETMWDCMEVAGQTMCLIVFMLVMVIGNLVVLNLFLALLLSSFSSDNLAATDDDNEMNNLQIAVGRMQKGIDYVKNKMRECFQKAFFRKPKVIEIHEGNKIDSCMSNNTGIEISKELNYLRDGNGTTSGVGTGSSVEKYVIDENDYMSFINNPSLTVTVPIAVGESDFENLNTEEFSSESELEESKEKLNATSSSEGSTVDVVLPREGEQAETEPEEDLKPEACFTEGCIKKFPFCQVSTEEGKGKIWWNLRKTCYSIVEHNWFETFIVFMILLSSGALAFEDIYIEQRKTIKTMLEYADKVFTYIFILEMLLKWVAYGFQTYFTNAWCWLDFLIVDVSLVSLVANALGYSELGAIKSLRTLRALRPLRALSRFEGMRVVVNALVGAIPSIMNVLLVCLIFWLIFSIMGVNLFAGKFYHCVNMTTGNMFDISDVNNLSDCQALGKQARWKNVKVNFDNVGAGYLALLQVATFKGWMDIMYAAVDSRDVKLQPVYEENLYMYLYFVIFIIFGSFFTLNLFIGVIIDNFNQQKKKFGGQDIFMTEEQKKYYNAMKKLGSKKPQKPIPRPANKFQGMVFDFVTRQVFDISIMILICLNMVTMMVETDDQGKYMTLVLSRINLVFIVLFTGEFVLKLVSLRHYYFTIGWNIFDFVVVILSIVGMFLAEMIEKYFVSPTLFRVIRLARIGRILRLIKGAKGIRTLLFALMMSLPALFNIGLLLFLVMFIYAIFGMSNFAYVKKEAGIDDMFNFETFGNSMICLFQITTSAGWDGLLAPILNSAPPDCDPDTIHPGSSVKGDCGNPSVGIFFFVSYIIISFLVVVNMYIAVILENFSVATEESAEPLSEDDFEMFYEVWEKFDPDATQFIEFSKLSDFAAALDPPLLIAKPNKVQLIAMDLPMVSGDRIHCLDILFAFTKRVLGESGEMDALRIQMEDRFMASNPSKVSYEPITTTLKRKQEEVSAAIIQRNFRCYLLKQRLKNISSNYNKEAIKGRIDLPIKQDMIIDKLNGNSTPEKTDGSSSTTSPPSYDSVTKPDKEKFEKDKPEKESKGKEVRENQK
Experiment: not given
Details: read-out: TTX IC50; cited from earlier work
For NC1=N[C@H](O)[C@H]2[C@H]3O[C@]4(O)O[C@@H]([C@@H](O)[C@@]2(N1)[C@@H]4O)[C@]3(O)CO [TTX, tetrodotoxin], the IC50 is given as 0.015 µM.

Molecular target: NaV1.6 (Homo sapiens, UniProt Q9UQD0)
Sequence (Q9UQD0 whole entry, looked up): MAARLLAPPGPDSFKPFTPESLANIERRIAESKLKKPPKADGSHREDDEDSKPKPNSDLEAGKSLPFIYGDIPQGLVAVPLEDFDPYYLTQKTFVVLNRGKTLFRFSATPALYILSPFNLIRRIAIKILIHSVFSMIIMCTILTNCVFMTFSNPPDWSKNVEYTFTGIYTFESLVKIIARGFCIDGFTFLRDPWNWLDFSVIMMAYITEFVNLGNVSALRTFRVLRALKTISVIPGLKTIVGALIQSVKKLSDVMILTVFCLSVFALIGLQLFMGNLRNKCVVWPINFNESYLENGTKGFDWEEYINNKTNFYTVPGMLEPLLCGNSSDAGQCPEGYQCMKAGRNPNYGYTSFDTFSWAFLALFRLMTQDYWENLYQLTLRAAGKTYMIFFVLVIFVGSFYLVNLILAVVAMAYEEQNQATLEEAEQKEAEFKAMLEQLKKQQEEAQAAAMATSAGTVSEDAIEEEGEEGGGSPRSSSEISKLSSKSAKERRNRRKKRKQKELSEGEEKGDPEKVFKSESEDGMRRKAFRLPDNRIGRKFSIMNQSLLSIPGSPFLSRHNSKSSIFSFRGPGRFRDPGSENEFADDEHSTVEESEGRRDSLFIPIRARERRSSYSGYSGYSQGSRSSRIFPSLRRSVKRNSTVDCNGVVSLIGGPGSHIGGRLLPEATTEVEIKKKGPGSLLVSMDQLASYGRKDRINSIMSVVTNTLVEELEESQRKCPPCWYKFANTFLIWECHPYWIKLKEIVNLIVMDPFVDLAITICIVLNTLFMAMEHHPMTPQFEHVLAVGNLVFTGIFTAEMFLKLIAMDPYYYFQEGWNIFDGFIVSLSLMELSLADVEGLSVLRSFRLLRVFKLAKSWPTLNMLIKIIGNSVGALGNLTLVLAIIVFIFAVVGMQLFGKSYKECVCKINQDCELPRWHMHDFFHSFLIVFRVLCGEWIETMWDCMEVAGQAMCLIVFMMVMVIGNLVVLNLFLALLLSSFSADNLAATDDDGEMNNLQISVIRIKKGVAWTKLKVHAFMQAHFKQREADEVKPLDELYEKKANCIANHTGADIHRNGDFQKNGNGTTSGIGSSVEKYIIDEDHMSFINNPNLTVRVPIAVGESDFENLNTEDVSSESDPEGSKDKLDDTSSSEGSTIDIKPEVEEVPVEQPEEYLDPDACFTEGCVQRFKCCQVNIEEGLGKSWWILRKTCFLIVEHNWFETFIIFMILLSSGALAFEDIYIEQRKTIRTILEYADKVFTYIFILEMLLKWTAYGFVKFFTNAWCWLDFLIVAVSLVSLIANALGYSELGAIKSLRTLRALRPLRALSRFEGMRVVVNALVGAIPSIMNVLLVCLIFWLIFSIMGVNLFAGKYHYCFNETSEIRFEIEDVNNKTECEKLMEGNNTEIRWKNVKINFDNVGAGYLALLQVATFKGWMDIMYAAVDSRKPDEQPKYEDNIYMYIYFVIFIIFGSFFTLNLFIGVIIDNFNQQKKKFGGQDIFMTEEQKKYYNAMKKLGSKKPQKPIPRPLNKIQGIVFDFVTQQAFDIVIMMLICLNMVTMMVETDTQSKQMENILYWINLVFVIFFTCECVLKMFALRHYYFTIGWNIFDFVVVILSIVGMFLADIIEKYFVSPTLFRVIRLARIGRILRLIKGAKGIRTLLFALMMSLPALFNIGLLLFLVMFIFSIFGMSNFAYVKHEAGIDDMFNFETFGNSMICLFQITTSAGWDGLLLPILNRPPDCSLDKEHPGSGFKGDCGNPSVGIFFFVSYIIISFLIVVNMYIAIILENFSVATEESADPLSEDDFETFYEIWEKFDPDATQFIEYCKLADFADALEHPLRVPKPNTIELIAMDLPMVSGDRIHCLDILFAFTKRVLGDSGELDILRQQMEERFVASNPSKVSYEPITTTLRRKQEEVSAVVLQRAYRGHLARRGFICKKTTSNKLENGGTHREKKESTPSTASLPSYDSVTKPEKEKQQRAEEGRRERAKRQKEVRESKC
Experiment: not given
Details: read-out: TTX IC50; cited from earlier work
For NC1=N[C@H](O)[C@H]2[C@H]3O[C@]4(O)O[C@@H]([C@@H](O)[C@@]2(N1)[C@@H]4O)[C@]3(O)CO [TTX, tetrodotoxin], the IC50 is listed as 0.006 µM.

Molecular target: T1, NaV1.8
Experiment: not given
Details: read-out: TTX IC50; cited from earlier work
In the case of NC1=N[C@H](O)[C@H]2[C@H]3O[C@]4(O)O[C@@H]([C@@H](O)[C@@]2(N1)[C@@H]4O)[C@]3(O)CO [TTX, tetrodotoxin], the IC50 is listed as > 50 µM.

Molecular target: NaV1.9 (Homo sapiens, UniProt Q9UI33)
Experiment: not given
Details: read-out: TTX IC50; cited from earlier work
For NC1=N[C@H](O)[C@H]2[C@H]3O[C@]4(O)O[C@@H]([C@@H](O)[C@@]2(N1)[C@@H]4O)[C@]3(O)CO [TTX, tetrodotoxin], the IC50 is listed as 1 µM.

Molecular target: NaV1.1 (Homo sapiens, UniProt P35498)
Experiment: not given
Details: read-out: TTX IC50; cited from earlier work
In the case of NC1=N[C@H](O)[C@H]2[C@H]3O[C@]4(O)O[C@@H]([C@@H](O)[C@@]2(N1)[C@@H]4O)[C@]3(O)CO [TTX, tetrodotoxin], the IC50 is given as 0.01 µM.

Molecular target: NaV1.2 (Homo sapiens, UniProt Q99250)
Experiment: not given
Details: read-out: TTX IC50; cited from earlier work
For NC1=N[C@H](O)[C@H]2[C@H]3O[C@]4(O)O[C@@H]([C@@H](O)[C@@]2(N1)[C@@H]4O)[C@]3(O)CO [TTX, tetrodotoxin], the IC50 is listed as 0.01 µM.
